≈ marks a conversion by molar mass, not a printed value.
Legend:
[1] = Dynamic light scattering (DLS): zeta-potential, mean diameter, PDI of nano-assemblies; format: physicochemical
[2] = system: Pyocyanin released from PA14 bacteria (wild type); test: Pyocyanin assay on Pseudomonas aeruginosa; format: cell-based; details: 18 μg/mL Farnesal or Farnesol, 16 h, n=9
Method: Pyocyanin assay was used to quantify the amount of Pyocyanin molecule released from PA14 bacteria (wild type) which were grown aerobically for 16 hours. The Pyocyanin assay was performed as follows:
A single colony of PA14 was removed from agar plates after 16 hours of growth at 37° C. and transferred into 25 mL Erlenmeyer flasks with 10 mL of PPGAS (proteose peptone glucose ammonium salt medium which is composed of (1 g/L NH4Cl, 1.5 g/L KCl, 19 g/L Tris-HCl, 10 g/L peptone, glucose 5 g/L and 0.1 g/L MgSO4·7H2O, the medium was adjusted to pH 7.4, and sterilized before use). Following 16 hours of aerobic growth with shaking at 200 rpm and 37° C., cultures were centrifuged at 7.450 g, washed twice with 10 mL of fresh PPGAS medium, and resuspended to a final volume of 5 mL solution. Cultures were then diluted to a final OD600 of 0.02 and distributed into 24 well-plates, 1.5 mL each well.
Compounds Farnesal and Farnesol were diluted in DMSO, then added to wells containing PA14 bacteria, in 1:100 dilutions with a final DMSO concentration of 1% (v/v), so that the final concentration of Farnesal was 18 μg/mL, and of Farnesol was 18 μg/mL. […]
All cultures were incubated for an additional 16 h under aerobic conditions as mentioned above. […] OD520 was measured in the aqueous phase. […]

[3] = system: P. aeruginosa strain PA14 (wild type); test: MIC assay against Pseudomonas aeruginosa; format: cell-based; details: PA14, read-out: MIC-90 against PA14
Method: The minimum inhibitory concentration (MIC) of the of the tobramycin containing nano-assemblies of example 2 against the P. aeruginosa strain PA14 (wild type) was tested and compared to known MIC values of tobramycin.

[4] = system: E. coli; details: literature value; cited from earlier work
[5] = system: 24 hours old PA14 biofilm; test: Minimum Biofilm Eradicating Concentration (MBEC) assay; format: cell-based, Pseudomonas aeruginosa; details: 24 h old PA14 biofilm treated 24 hours
Method: Minimum Biofilm Eradicating Concentration (MBEC) assay was used to determine the minimum concentration of active agents at which a 24 hours old PA14 biofilm is completely eradicated. The MBEC assay was performed as follows: […]
The 96 well-plates were then kept at 37° C. without shaking for 24 hours to allow the forming of biofilm. Afterwards, the planktonic bacteria were removed, and the 24 hours old biofilm was washed twice with PBS, then fed with fresh PPGAS medium, and ready for the assay. […]
All cultures were incubated for an additional 24 hours at 37° C. without shaking. […] All cultures were then measured OD650, and the biofilm is considered to be completely eradicated once the resulting OD650 is equal or lower than OD650 of PPGAS medium.

CC(C)=CCCC(C)=CCCC(C)=CC=O [Farnesal]
zeta-potential [1]: −33.8±0.5 mV | percentage inhibition of released Pyocyanin vs PA14 wt control [2]: 5.85±3.10%

CC(C)=CCCC(C)=CCCC(C)=CCO [Farnesol]
percentage inhibition of released Pyocyanin vs PA14 wt control [2]: 12.29±7.35%

NC[C@H]1O[C@H](O[C@H]2[C@H](O)[C@@H](O[C@H]3O[C@H](CO)[C@@H](O)[C@H](N)[C@H]3O)[C@H](N)C[C@@H]2N)[C@H](N)C[C@@H]1O [Tobramycin]
MIC90 [3]: 6.25 to 12.5 µg/mL (≈ 13.4 to 26.7 µM) | MIC-90 against E. coli (Dienstag and Neu) [4]: 6.25 µg/mL (≈ 13.4 µM) | Tobramycin concentration needed for complete biofilm eradication (MBEC) [5]: ≥ 100 µg/mL
